Assay results from ChEMBL document CHEMBL1781900, “Synthesis and peptide incorporation of an unnatural amino acid containing activity-based probe for protein tyrosine phosphatases” (Bioorg Med Chem Lett, 2009).
Residue numbers refer to the chain shown, from its start. Activity calls are given as the source filed them. No cut-off for these calls is given here.

Assays:
[1] = target: T1, Tyrosine-protein phosphatase non-receptor type 1 (Homo sapiens) (UniProt P18031); experiment: Binding affinity to purified recombinant PTP1B using streptaive HRP at 20 uM after 1 hr by Western blotting analysis
T1 sequence (whole entry): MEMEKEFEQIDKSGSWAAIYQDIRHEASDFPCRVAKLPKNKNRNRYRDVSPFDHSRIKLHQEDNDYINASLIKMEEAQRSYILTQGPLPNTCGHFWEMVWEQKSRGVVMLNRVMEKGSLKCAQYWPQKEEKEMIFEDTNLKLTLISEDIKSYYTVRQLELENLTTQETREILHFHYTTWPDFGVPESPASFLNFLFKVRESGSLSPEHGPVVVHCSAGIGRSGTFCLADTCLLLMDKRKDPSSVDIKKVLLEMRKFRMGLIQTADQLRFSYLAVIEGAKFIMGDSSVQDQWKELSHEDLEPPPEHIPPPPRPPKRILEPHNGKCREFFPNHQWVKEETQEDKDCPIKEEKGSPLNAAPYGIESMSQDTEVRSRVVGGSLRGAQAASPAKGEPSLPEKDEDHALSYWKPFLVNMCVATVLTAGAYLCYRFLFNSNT

[2] = system: Jurkat; experiment: Binding affinity to PTP1B in human Jurkat cell lysate at 0.8 mM after 1 hr by Western blotting analysis in presence of alpha-bromobenzylphosphonate; format: cell-free
[3] = target: Protein tyrosine phosphatase type IVA 3 (Homo sapiens) (UniProt O75365); experiment: Binding affinity to purified recombinant PTP4A3 using streptaive HRP at 200 uM by Western blotting analysis
[4] = target: T1, Tyrosine-protein phosphatase non-receptor type 1 (Homo sapiens); experiment: Binding affinity to purified recombinant PTP1B using streptaive HRP at 200 uM after 1 hr by Western blotting analysis
[5] = system: Escherichia coli; experiment: Binding affinity to PTP4A3 in Escherichia coli lysate at 0.8 mM after 1 hr by Western blotting analysis in presence of alpha-bromobenzylphosphonate
[6] = system: Escherichia coli; experiment: Binding affinity to PTP1B in Escherichia coli lysate at 0.8 mM after 1 hr by Western blotting analysis
[7] = system: T2, Tyrosine-protein phosphatase non-receptor type 1 (Homo sapiens), P18031 [C215S]; experiment: Binding affinity to purified recombinant dPTP1B C215S mutant using streptaive HRP at 200 uM after 1 hr by Western blotting analysis
T2 sequence (whole entry): T1 sequence (whole entry) with C215S

[8] = target: Protein tyrosine phosphatase type IVA 3 (Homo sapiens) (UniProt O75365); experiment: Binding affinity to purified recombinant PTP4A3 using streptaive HRP at 20 uM after 1 hr by Western blotting analysis

Protein tyrosine phosphatase type IVA 3 (Homo sapiens), sequence (O75365 whole entry): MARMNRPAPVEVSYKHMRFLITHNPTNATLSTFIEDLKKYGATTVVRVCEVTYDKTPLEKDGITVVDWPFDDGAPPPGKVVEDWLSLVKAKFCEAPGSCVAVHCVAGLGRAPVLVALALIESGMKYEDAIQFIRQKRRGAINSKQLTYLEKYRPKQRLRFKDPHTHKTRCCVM

Which results are given for `NC(=O)[C@H](Cc1ccc(OP(=O)(O)O)c(C(F)F)c1)NC(=O)[C@H](CC(=O)O)NC(=O)Cc1ccc(C(F)(F)P(=O)(O)O)cc1`?
Activity [1]: Active; Activity [2]: Active; Activity [3]: Active; Activity [4]: Active; Activity [5]: Active; Activity [6]: Active; Activity [7]: inactive; Activity [8]: inactive
